System: aminopeptidase M (Ap)
Assay: Ap-catalyzed cleavage of H-Arg-AMC
Type: biochemical
Details: read-out: KM (Ap-catalyzed cleavage); substrate of aminopeptidase M

Km: 5 mM
SMILES: Cc1cc(=O)oc2cc(NC(=O)[C@@H](N)CCCN=C(N)N)ccc12 [H-Arg-AMC]
